Like-named read-outs stand apart in the source and are kept apart here. Marks after values point to notes of the source that are not given here.
Tests used:
[1] = system: patients with a diagnosis of PTSD or MDD; healthy subjects; experiment: Methylone case series (Example 4, Cohorts 1 and 2): CGI-S/CGI-I and safety events; type: in vivo, human
Description: CGI-S scale was also evaluated in a subset of patients from Cohort 2 post-treatment. Cohort 2 was evaluated for any observed or reported safety events following a single dosing session.
Clinical Global Impressions (CGI) scale includes 2 components: CGI-S(“severity”) and CGI-I (“improvement”).
• 1=Normal—not at all ill, symptoms of disorder not present past seven days • 2=Borderline mentally ill-subtle or suspected pathology • 3=Mildly ill-clearly established symptoms with minimal, if any, distress or difficulty in social and occupational function • 4=Moderately ill-overt symptoms causing noticeable, but modest, functional impairment or distress; symptom level may warrant medication • 5=Markedly ill-intrusive symptoms that distinctly impair social/occupational function or cause intrusive levels of distress • 6=Severely ill-disruptive pathology, behavior and function are frequently influenced by symptoms, may require assistance from others • 7=Among the most extremely ill patients-pathology drastically interferes in many life functions; may be hospitalized
Only sessions that included methylone dosing were counted as dosing sessions.
Single sessions occurred for 8 of the 28 cases with no booster in two of these cases. In the remainder of the cases, multiple sessions occurred, and booster doses were used in all or some of the remaining patients ([…]) with multiple booster doses used in some or all of the sessions in 15 patients.

[2] = system: Sprague Dawley rats; experiment: Forced Swim Test (FST); type: in vivo, rat; details: for reduction in immobility compared to saline vehicle: single dose 30 min prior to testing (Example 6)
Text: The Forced Swim Test (FST) is a classic, and the most used preclinical behavioral assay to screen compounds with antidepressant-like activity and has high predictive and face validity (Porsolt et al. (1977) Nature 266:730; Borsini and Meli (1988) Psychopharmacology 94:147). The premise of the FST is that when rats are placed into a cylinder filled with water, they will initially try to escape, but over time will become immobile. This increased immobility reflects behavioral despair, modeling a depressive-like state.
Animals: Male Sprague Dawley rats (Charles River Laboratories) weighing 180-200 g on arrival, were used for this study which took place at Melior Discovery (Exton, PA). Rats acclimated to their home cages for at least one week before testing, were maintained in a controlled environment on a 12 h light/dark cycle, with no more than 2 rats per cage. Animals received ad libitum access to food and water and were assigned randomly to treatment groups. Animal use and procedures were in accordance with established protocols approved by the IACUC committee, Melior Standard Operation Procedures (SOP), and Transcend Therapeutics.
Forced Swim Test (FST): In the FST trial, rats were be placed in a circular plexiglass container filled with water, with no means of escape. Water temperature was maintained at 22-25° C. and changed for every animal. After an acclimation period, rats were timed for inactivity (failure to struggle), activity, swim time and climbing time. Day 1 consisted of a 15 min acclimation trial, and Day 2 (24 h later) consisted of the 5 min test. A time sampling procedure was employed where animals were observed every 5 sec and scored for immobility, swimming, or climbing. Fluoxetine (10 mg/kg, IP, Sigma Aldrich) or 0.9% sterile saline vehicle (vehicle 3× group) were administered 23.5, 5, and 1 h before testing in the FST. […] The experimenter was blinded to treatment.
Statistical Analysis: Data for each parameter of the test (immobility, swimming, or climbing) is expressed as the mean±SEM. Differences between groups were determined by one-way ANOVA and post-hoc Tukey's test with a p-value of less than 0.05 indicating statistically significant differences.
Forced Swim Test: In the FST trial, rats were be placed in a circular plexiglass container filled with water, with no means of escape. Water temperature was maintained at 22-25° C. and changed for every animal. After an acclimation period, rats were timed for inactivity (failure to struggle), activity, swim time and climbing time. Day 1 consisted of a 15 min acclimation trial, and Day 2 (24 h later) consisted of the 5 min test. A time sampling procedure was employed where animals were observed every 5 sec and scored for immobility, swimming, or climbing. Fluoxetine (10 mg/kg, IP, Sigma Aldrich) or 0.9% sterile saline vehicle (vehicle 3× group) were administered 23.5, 5, and 1 h before testing in the FST. 2C-B (2.5, 10, or 20 mg/kg, IP, Cayman Chemical) or 0.9% saline vehicle (vehicle 1× group) were administered 30 min prior to FST testing. The experimenter was blinded to treatment.
Drug Treatment: Fluoxetine (10 mg/kg, IP, Sigma Aldrich) or 0.9% sterile saline vehicle were administered 23.5, 5, and 1 h before testing in the FST. […] Control animals received fluoxetine alone, methylone alone, or saline vehicle.
Forced Swim Test: In the FST trial, rats were be placed in a circular plexiglass container filled with water, with no means of escape. Water temperature was maintained at 22-25° C. and changed for every animal. After an acclimation period, rats were timed for inactivity (failure to struggle), activity, swim time and climbing time. The experimenter and scorer were blind to treatment group. Day 1 consisted of a 15 min acclimation trial, and Day 2 (24 h later) consisted of the 5 min test. A time sampling procedure was employed where animals were observed every 5 sec and scored for immobility, swimming, or climbing. […]

[3] = target: serotonin (5HT) transporter (Homo sapiens, UniProt P31645); experiment: Radioligand binding, [3H] citalopram
Sequence of serotonin (5HT) transporter (P31645 whole entry): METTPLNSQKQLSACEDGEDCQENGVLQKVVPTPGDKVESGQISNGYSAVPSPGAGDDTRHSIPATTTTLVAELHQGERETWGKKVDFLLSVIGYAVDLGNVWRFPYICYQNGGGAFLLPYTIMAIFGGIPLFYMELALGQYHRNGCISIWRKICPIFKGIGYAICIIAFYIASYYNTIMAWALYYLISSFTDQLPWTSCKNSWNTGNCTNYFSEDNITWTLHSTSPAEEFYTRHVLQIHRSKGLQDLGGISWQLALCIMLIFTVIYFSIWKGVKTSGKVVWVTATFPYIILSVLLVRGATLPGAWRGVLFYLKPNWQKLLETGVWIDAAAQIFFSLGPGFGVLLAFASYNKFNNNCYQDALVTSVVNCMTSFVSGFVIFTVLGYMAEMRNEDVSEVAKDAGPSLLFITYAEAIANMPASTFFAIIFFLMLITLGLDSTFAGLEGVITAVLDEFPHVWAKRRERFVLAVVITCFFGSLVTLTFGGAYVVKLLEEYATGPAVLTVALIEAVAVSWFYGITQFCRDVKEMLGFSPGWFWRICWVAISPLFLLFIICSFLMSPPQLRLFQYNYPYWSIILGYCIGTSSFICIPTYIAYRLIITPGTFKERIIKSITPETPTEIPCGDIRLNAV

[4] = target: dopamine (DA) transporter (Homo sapiens, UniProt Q01959); experiment: Radioligand binding, [3H] WIN35428
Sequence of dopamine (DA) transporter (Q01959 whole entry): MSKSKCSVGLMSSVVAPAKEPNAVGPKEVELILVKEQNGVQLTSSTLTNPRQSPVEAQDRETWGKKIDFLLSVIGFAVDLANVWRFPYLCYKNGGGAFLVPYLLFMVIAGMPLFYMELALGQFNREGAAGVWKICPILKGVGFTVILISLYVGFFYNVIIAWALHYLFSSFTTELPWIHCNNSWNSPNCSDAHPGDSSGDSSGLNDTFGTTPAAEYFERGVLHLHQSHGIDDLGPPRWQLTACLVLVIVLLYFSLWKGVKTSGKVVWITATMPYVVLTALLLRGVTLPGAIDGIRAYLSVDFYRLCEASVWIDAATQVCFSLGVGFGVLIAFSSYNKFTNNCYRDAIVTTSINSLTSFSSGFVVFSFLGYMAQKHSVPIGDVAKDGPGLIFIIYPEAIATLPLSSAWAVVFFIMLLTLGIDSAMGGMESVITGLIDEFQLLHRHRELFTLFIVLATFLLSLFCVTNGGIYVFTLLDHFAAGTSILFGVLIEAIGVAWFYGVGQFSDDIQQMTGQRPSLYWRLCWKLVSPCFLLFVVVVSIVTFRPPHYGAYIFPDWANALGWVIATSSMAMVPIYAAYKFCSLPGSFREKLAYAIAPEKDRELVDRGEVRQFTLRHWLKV

[5] = target: norepinephrine (NE) transporter (Homo sapiens, UniProt P23975); experiment: Radioligand binding, [3H] nisoxetine
Sequence of norepinephrine (NE) transporter (P23975 whole entry): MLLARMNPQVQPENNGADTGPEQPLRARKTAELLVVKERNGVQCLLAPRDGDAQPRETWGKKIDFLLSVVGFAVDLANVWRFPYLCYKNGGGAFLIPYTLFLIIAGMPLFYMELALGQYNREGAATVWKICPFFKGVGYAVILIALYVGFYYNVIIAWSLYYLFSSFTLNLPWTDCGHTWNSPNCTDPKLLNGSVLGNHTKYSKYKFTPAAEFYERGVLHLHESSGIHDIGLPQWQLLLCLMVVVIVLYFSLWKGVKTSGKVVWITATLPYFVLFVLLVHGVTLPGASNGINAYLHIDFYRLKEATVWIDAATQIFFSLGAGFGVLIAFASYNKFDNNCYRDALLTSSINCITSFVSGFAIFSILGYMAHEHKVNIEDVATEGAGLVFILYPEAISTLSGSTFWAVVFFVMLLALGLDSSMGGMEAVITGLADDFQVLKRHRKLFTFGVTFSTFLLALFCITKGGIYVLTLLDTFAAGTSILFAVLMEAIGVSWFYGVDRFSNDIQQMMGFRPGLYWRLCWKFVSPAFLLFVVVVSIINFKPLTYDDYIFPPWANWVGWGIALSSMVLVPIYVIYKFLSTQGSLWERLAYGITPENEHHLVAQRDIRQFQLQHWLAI

[6] = system: 168 GPCRs; experiment: DiscoverX PathHunter β-arrestin GPCR screen, agonist and antagonist mode; type: cell-based; details: 1 and 10 micromolar
Description: For agonist determination, cells were incubated with sample to induce response. […] Vehicle concentration was 1%.
Vehicle concentration was 1%.

[7] = target: vesicular monoamine transporter 2 (VMAT2) (Homo sapiens, UniProt Q05940); details: cited from earlier work
Sequence of vesicular monoamine transporter 2 (VMAT2) (Q05940 whole entry, species assumed): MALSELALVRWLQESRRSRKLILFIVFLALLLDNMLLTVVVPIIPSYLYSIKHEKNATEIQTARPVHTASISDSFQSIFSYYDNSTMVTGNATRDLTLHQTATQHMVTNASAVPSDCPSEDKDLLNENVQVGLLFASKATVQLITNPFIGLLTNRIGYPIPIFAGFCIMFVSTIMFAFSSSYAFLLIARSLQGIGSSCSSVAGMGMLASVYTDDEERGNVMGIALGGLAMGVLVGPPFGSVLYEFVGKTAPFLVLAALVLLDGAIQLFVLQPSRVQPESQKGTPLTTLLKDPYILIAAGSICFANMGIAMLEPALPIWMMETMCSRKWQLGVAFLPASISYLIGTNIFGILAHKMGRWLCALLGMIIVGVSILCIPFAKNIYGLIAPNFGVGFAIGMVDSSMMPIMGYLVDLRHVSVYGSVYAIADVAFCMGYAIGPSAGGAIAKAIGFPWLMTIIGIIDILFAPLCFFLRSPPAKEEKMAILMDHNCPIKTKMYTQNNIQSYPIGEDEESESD

[8] = system: drug users / humans; details: methylone 50 mg in humans (Poyatos 2022); cited from earlier work

CNC(C)C(=O)c1ccc2c(c1)OCO2 (stereo not shown) [methylone, 3,4-methylenedioxy-N-methylcathinone]
Number of cases (N = 28), Magnitude of Improvement [1]: 0 | adverse effects or after-effects ([1]; Cohort 1, 4 healthy subjects, single session, total dose 790 or 870 mg oral): no adverse effects or after-effects were observed or reported | cases in which methylone dosing was well tolerated and no safety events were reported ([1]; Cohort 2, 25 of 28 cases): 89.3% | patients with initial improvement with the first methylone session ([1]; Cohort 2, 25 of 28 patients): ~90% | patients achieving CGI-I 1 or 2 ([1]; Cohort 2 MDD subset, 8/8 patients): 100% | patients achieving CGI-I 1 or 2 ([1]; Cohort 2 PTSD subset, 16/20 patients): 80% | patients achieving CGI-I 1 or 2 (much improved or very much improved) ([1]; Cohort 2 overall, N=28, oral methylone, single or multiple sessions, compared to baseline CGI-S): 86% | cases reporting a durable effect ([1]; MDD subset of Cohort 2, 6 narratives with durability information): 5 | cases with durable effect of 6 months or greater ([1]; PTSD subset of Cohort 2): 12 | case narratives reporting a durable effect ([1]; PTSD subset of Cohort 2, 16 narratives with durability information): 15 | patients with magnitude of improvement CGI 1 or 2 ([1]; PTSD subset, of 5 patients with concomitant SSRIs or other antidepressant classes): 4 | Number of cases (N = 28), Magnitude of Improvement ([1]; highest observed CGI-I = 1 (very much improved), Cohort 2): 11* | Number of cases (N = 28), Magnitude of Improvement ([1]; highest observed CGI-I = 2 (much improved), Cohort 2): 13 | Number of cases (N = 28), Magnitude of Improvement ([1]; highest observed CGI-I = 3 (minimally improved), Cohort 2): 4 | Number of cases (N = 28), Magnitude of Improvement ([1]; highest observed CGI-I = 4 (no change), Cohort 2): 0 | Number of cases (N = 28), Magnitude of Improvement ([1]; highest observed CGI-I = 5 (minimally worse), Cohort 2): 0 | Number of cases (N = 28), Magnitude of Improvement ([1]; highest observed CGI-I = 6 (much worse), Cohort 2): 0 | climbing behavior ([2]; Example 8): significantly increased climbing behavior | reduced immobility compared to vehicle ([2]; Methylone alone, 5 mg/kg IP (Example 8)): 71% | reduced immobility compared to vehicle ([2]; combined treatment: fluoxetine x3 plus Methylone 15 mg/kg IP (Example 8)): 95% | reduction in immobility compared to saline vehicle ([2]; methylone 5 mg/kg IP): 54% | reduction in immobility compared to saline vehicle ([2]; methylone 15 mg/kg IP): 99% | reduction in immobility compared to saline vehicle ([2]; methylone 30 mg/kg IP): 96% | climbing ([2]; methylone 5, 15, 30 mg/kg IP, Example 6): only increased at the lowest dose | swimming ([2]; methylone mid and high doses (15, 30 mg/kg IP), Example 6): significantly increased swimming | reduced immobility vs. vehicle ([2]; single dose of Methylone (5 mg/kg IP) after three prior doses of fluoxetine 10 mg/kg IP (Example 8)): 62% | immobility time ([2]; single doses of 10 and 15 mg/kg methylone IP (Example 11)): reducing immobility time significantly | immobility ([2]; two or three 5 mg/kg doses IP (Example 11)): significantly reduce immobility | binding at the 5HT transporter [3]: confirmed methylone binding | binding at the DA transporter [4]: confirmed methylone binding | binding at the NE transporter [5]: confirmed methylone binding | agonist or antagonist activity (criteria: >30% activity, >50% inhibition) [6]: did not meet criteria for agonist or antagonist activity | affinity for VMAT2 lower than that of MDMA [7]: about 13 × | side effects [8]: no detectable side effects
